Data on 32 compounds can be found in the NIST ThermoML archive (doi:10.1021/je101008y).

A short description of this series: activity coefficient (dimensionless); of the first substance listed, at infinite dilution; xn = mol fraction of the nth substance listed. The note with it: Liquid, Chromatography, x1 = 0.

± gives the expanded uncertainty stated by the source.

In the case of `C=CCCCCCC` [oct-1-ene] + CCCC[N+]1(C)CCCCC1.N#C[S-], the activity coefficient (318.15 K) came out at 90.6 ± 6.2; the activity coefficient (328.15 K) was 83.7 ± 5.7; the activity coefficient (338.15 K) was found to be 77.4 ± 5.3; the activity coefficient (348.15 K) is 71.5 ± 4.9; the activity coefficient (358.15 K) was determined as 67.4 ± 4.6.
Regarding `c1ccccc1` [benzene] + CCCC[N+]1(C)CCCCC1.N#C[S-], the activity coefficient was found to be 1.9 ± 0.13 (318.15 K); 1.92 ± 0.13 (328.15 K); 1.95 ± 0.13 (338.15 K); 1.97 ± 0.13 (348.15 K); 1.99 ± 0.14 (358.15 K).
`CCCOCCC` [dipropyl ether] + CCCC[N+]1(C)CCCCC1.N#C[S-]: the activity coefficient is, setting by setting: (318.2 K) 35.1 ± 2.4; (328.2 K) 32.9 ± 2.3; (338.2 K) 31 ± 2.1; (348.2 K) 29.3 ± 2; (358.2 K) 28 ± 1.9.
For the compound `C#CCCCC` [1-hexyne] + CCCC[N+]1(C)CCCCC1.N#C[S-], the activity coefficient came to 6.07 ± 0.41 (318.15 K); 6.11 ± 0.42 (328.15 K); 6.16 ± 0.42 (338.15 K); 6.19 ± 0.42 (348.15 K); 6.22 ± 0.42 (358.15 K).
Turning to `O` [water] + CCCC[N+]1(C)CCCCC1.N#C[S-], the activity coefficient (328.15 K) came out at 0.332 ± 0.032, the activity coefficient (338.15 K) amounted to 0.337 ± 0.032, the activity coefficient (348.15 K) was 0.342 ± 0.032 and the activity coefficient (358.15 K) is 0.348 ± 0.032.
On to `C1CCCCCCC1` [cyclooctane] + CCCC[N+]1(C)CCCCC1.N#C[S-], for which the activity coefficient turned out to be 60 ± 4 (318.15 K); 54 ± 4 (328.15 K); 49.1 ± 3.4 (338.15 K); 44.7 ± 3.1 (348.15 K); 42.1 ± 2.9 (358.15 K).
`C=CCCCCC` [1-heptene] + CCCC[N+]1(C)CCCCC1.N#C[S-]: the activity coefficient runs as follows: (318.15 K) 60.3 ± 4.1; (328.15 K) 55.5 ± 3.8; (338.15 K) 51.7 ± 3.5; (348.15 K) 47.9 ± 3.3; (358.15 K) 45.7 ± 3.1.
For `CCCCCCC` [heptane] + CCCC[N+]1(C)CCCCC1.N#C[S-] the same measures were 170 ± 12, 142 ± 10, 127 ± 9, 111 ± 8 and 102 ± 7.
Take `CCCCCCCCCC` [decane] + CCCC[N+]1(C)CCCCC1.N#C[S-]: the activity coefficient was determined as 487 ± 34 (318.15 K); 433 ± 30 (328.15 K); 390 ± 27 (338.15 K); 342 ± 24 (348.15 K); 311 ± 21 (358.15 K).
As to `Cc1ccc(C)cc1` [1,4-dimethylbenzene] + CCCC[N+]1(C)CCCCC1.N#C[S-], the activity coefficient turned out to be 5.01 ± 0.34 (318.15 K); 5.04 ± 0.34 (328.15 K); 5.07 ± 0.35 (338.15 K); 5.1 ± 0.35 (348.15 K); 5.13 ± 0.35 (358.15 K).
For `Cc1cccc(C)c1` [1,3-dimethylbenzene] + CCCC[N+]1(C)CCCCC1.N#C[S-] the same measures were 5.23 ± 0.36, 5.25 ± 0.36, 5.26 ± 0.36, 5.27 ± 0.36 and 5.28 ± 0.36.
For `CCCCCCCC` [octane] + CCCC[N+]1(C)CCCCC1.N#C[S-], the activity coefficient is, setting by setting: (318.15 K) 236 ± 16; (328.15 K) 206 ± 14; (338.15 K) 185 ± 13; (348.15 K) 161 ± 11; (358.15 K) 150 ± 10.
Regarding `CO` [methanol] + CCCC[N+]1(C)CCCCC1.N#C[S-], the activity coefficient is 0.366 ± 0.033 (318.15 K); 0.368 ± 0.033 (328.15 K); 0.37 ± 0.033 (338.15 K); 0.371 ± 0.033 (348.15 K); 0.373 ± 0.033 (358.15 K).
Regarding `CCCCCCCCC` [nonane] + CCCC[N+]1(C)CCCCC1.N#C[S-], the activity coefficient is, setting by setting: (318.15 K) 333 ± 23; (328.15 K) 293 ± 20; (338.15 K) 267 ± 18; (348.15 K) 234 ± 16; (358.15 K) 214 ± 15.
Take `C#CCCCCCC` [1-octyne] + CCCC[N+]1(C)CCCCC1.N#C[S-]: the activity coefficient is, setting by setting: (318.15 K) 13.6 ± 0.9; (328.15 K) 13.6 ± 0.9; (338.15 K) 13.6 ± 0.9; (348.15 K) 13.7 ± 0.9; (358.15 K) 13.7 ± 0.9.
In the case of `C1CCCC1` [cyclopentane] + CCCC[N+]1(C)CCCCC1.N#C[S-], the activity coefficient is, setting by setting: (318.15 K) 27.5 ± 1.9; (328.15 K) 24.2 ± 1.7; (338.15 K) 22.1 ± 1.5; (348.15 K) 19.9 ± 1.4; (358.15 K) 18.9 ± 1.3.
For the compound `c1ccsc1` [thiophene] + CCCC[N+]1(C)CCCCC1.N#C[S-], the activity coefficient worked out at 1.1 ± 0.07 (318.15 K); 1.13 ± 0.07 (328.15 K); 1.17 ± 0.07 (338.15 K); 1.2 ± 0.08 (348.15 K); 1.23 ± 0.08 (358.15 K).
Regarding `CCOCC` [diethyl ether] + CCCC[N+]1(C)CCCCC1.N#C[S-], the activity coefficient runs as follows: (318.2 K) 12 ± 0.8; (328.2 K) 11.6 ± 0.8; (338.2 K) 11.1 ± 0.8; (348.2 K) 10.8 ± 0.7; (358.2 K) 10.5 ± 0.7.
On to `CCO` [ethanol] + CCCC[N+]1(C)CCCCC1.N#C[S-], for which the activity coefficient is, setting by setting: (318.15 K) 0.647 ± 0.044; (328.15 K) 0.637 ± 0.044; (338.15 K) 0.627 ± 0.043; (348.15 K) 0.618 ± 0.043; (358.15 K) 0.612 ± 0.043.
As for `CC(C)=O` [acetone] + CCCC[N+]1(C)CCCCC1.N#C[S-], the activity coefficient was found to be 1.52 ± 0.1 (318.2 K); 1.52 ± 0.1 (328.2 K); 1.53 ± 0.1 (338.2 K); 1.54 ± 0.1 (348.2 K); 1.55 ± 0.1 (358.2 K).
As for `Cc1ccccc1C` [1,2-dimethylbenzene] + CCCC[N+]1(C)CCCCC1.N#C[S-], the activity coefficient reads like this: (318.15 K) 4.15 ± 0.28; (328.15 K) 4.18 ± 0.28; (338.15 K) 4.21 ± 0.29; (348.15 K) 4.24 ± 0.29; (358.15 K) 4.26 ± 0.29.
`CCc1ccccc1` [ethylbenzene] + CCCC[N+]1(C)CCCCC1.N#C[S-]: the activity coefficient reads like this: (318.15 K) 5.18 ± 0.35; (328.15 K) 5.18 ± 0.35; (338.15 K) 5.16 ± 0.35; (348.15 K) 5.15 ± 0.35; (358.15 K) 5.14 ± 0.35.
Regarding `CCCCCC` [hexane] + CCCC[N+]1(C)CCCCC1.N#C[S-], the activity coefficient reads like this: (318.15 K) 124 ± 9; (328.15 K) 104 ± 7; (338.15 K) 89.3 ± 6.1; (348.15 K) 78.5 ± 5.4; (358.15 K) 68.5 ± 4.7.
Take `C1CCCCCC1` [cycloheptane] + CCCC[N+]1(C)CCCCC1.N#C[S-]: the activity coefficient runs as follows: (318.15 K) 44.3 ± 3; (328.15 K) 41.5 ± 2.8; (338.15 K) 37.4 ± 2.6; (348.15 K) 34.6 ± 2.4; (358.15 K) 32.7 ± 2.2.
`CCCC(C)=O` [pentan-2-one] + CCCC[N+]1(C)CCCCC1.N#C[S-]: the activity coefficient by setting is: (318.2 K) 3.07 ± 0.21; (328.2 K) 3.08 ± 0.21; (338.2 K) 3.09 ± 0.21; (348.2 K) 3.11 ± 0.21; (358.2 K) 3.12 ± 0.21.
Take `C=CCCCC` [hex-1-ene] + CCCC[N+]1(C)CCCCC1.N#C[S-]: the activity coefficient reads like this: (318.15 K) 41.3 ± 2.8; (328.15 K) 37 ± 3; (338.15 K) 34.6 ± 2.4; (348.15 K) 32 ± 2; (358.15 K) 30.1 ± 2.1.
In the same order, the values of `C#CCCCCC` [1-heptyne] + CCCC[N+]1(C)CCCCC1.N#C[S-] are 9.17 ± 0.63, 9.19 ± 0.63, 9.2 ± 0.6, 9.23 ± 0.63 and 9.28 ± 0.63.
Take `COC(C)(C)C` [2-methoxy-2-methylpropane] + CCCC[N+]1(C)CCCCC1.N#C[S-]: the activity coefficient was 13.1 ± 0.9 (318.2 K); 12.7 ± 0.9 (328.2 K); 12.4 ± 0.8 (338.2 K); 12 ± 0.8 (348.2 K); 11.8 ± 0.8 (358.2 K).
In the case of `CCC(=O)CC` [pentan-3-one] + CCCC[N+]1(C)CCCCC1.N#C[S-], the activity coefficient reads like this: (318.2 K) 3.08 ± 0.21; (328.2 K) 3.09 ± 0.21; (338.2 K) 3.11 ± 0.21; (348.2 K) 3.12 ± 0.21; (358.2 K) 3.13 ± 0.21.
Consider `C1CCCCC1` [cyclohexane] + CCCC[N+]1(C)CCCCC1.N#C[S-], for which the activity coefficient came to 39.8 ± 2.7 (318.15 K); 35.9 ± 2.5 (328.15 K); 32.4 ± 2.2 (338.15 K); 29.4 ± 2 (348.15 K); 27.5 ± 1.9 (358.15 K).
In the same order, the values of `Cc1ccccc1` [toluene] + CCCC[N+]1(C)CCCCC1.N#C[S-] are 3.14 ± 0.21, 3.16 ± 0.22, 3.19 ± 0.22, 3.21 ± 0.22 and 3.23 ± 0.22.
On to `C1CCOC1` [tetrahydrofuran] + CCCC[N+]1(C)CCCCC1.N#C[S-], for which the activity coefficient is 2.28 ± 0.16 (318.15 K); 2.31 ± 0.16 (328.15 K); 2.34 ± 0.16 (338.15 K); 2.36 ± 0.16 (348.15 K); 2.38 ± 0.16 (358.15 K).
